Measurements published in patent US10098895B2, “Treatment of symptoms related to neurodegenerative disorders through pharmacological dermal activation of cranial nerves” (GLIA, LLC, priority 2016, dated 2018).
“Also recorded” adds a separate entry of the source.

Columns and labels:
[1] = system: Parkinson's disease symptoms; assay: Example 1: Parkinson's disease patient, dermal application to forehead and ear conchae
Experimental: A person was diagnosed with the early stages of Parkinson's disease in December of 2014. Their symptoms included tremors in the hands, impaired short term memory, slow and uncontrolled rigid movements while walking and eating, and declining ocular blink function. The patient also had dry eyes with hyper-tearing, burning, and itching.
The patient was also treated with progesterone 1% on the forehead initially once daily beginning in March 2015. […] The progesterone was applied as needed for about a year.
Instead of the prescribed regimen, the patient began dermal application of dronabinol 1.25 mg 2 times daily to three sites: (i) the forehead, (ii) the concha of the left ear, and (iii) the concha of the right ear. Each dose of 1.25 mg was divided equally between the three application sites. This treatment regimen began Friday Jun. 10, 2016 concurrent with the discontinuation of rasagiline.
In February 2017, the patient, who suffers from debilitating moderate spinal stenosis, started taking Azilect (rasagiline) and carbidopa-levodopa to improve their walking and flexibility. […] The patient decided that, together with the prescribed medications, they would switch from dronabinol to topical testosterone gel applied to the forehead and ear conchae to see if this would impact their longstanding low testosterone levels.
In March 2017, topical testosterone gel application was instituted as an adjunct to is the prescribed Azilect and carbidopa-levodopa.
The patient voluntarily stopped topical testosterone for 3 weeks in June 2017. […] At the end of 3 weeks, topical testosterone was re-instituted as an adjunct to the prescribed medications.

essential tremor = assay: Example 7: essential tremor subject with contact lens discomfort; format: in vivo, human
Experimental: A person developed persistent right hand tremors of a kinetic (non-resting) type that has been continuous over the past 6 years. […] This condition had not worsened over time. […] Initially, their doctor thought that these symptoms were stress related and they have been taking 2.5 mg of escitalopram for over 6 years. […] The subject was not on hormone replacement therapy or any other medication.
Concomitantly, the subject suffered from uncomfortable eyes, with a sticky burning sensation and development of blurred vision after about 5-6 hours of contact lens wear. For the past 3 years, the subject was administered 1% progesterone gel (1 mg per day) by dermal application to the forehead once per night. The progesterone gel prolonged comfortable contact lens wear time with sustained visual acuity from 5-6 hours to greater than 15 hours. […] After 2 years of treatment, the benefits of progesterone dermal application persisted for at least 3 days without treatment. There was no effect of the progesterone on their tremor symptoms.
After allowing for washout of progesterone for 3 days, they began forehead application of 0.5-0.75 mg dronabinol once daily at night.
The dronabinol administration regimen was altered by dividing equally the once daily dose of 0.5-0.75 mg dronabinol between the conchae of the left ear, the conchae of the right ear, and the forehead. […] Comfortable contact lens wear, with ease of insertion and removal, and visual acuity extends for 15 hours or more after dronabinol application.
Contact lens comfort wear duration was greater than 15 hours.
In April 2017, the subject, while still being treated with 1% progesterone applied to the forehead, instituted a once-daily low dose topical testosterone applied to the forehead and ear conchae to determine if doing so would produce a beneficial impact on further tremor reduction and in particular essential tremor triggered by caffeine consumption. […] They stopped the treatment to assess whether the tremor would return to pre-testosterone treatment levels. As of August 2017, the subject is without noticeable tremor. The caffeine trigger for tremor onset, which had been recognized throughout all treatments, has not re-appeared since the completion of the 4-week testosterone treatment. The subject continues on low-dose progesterone 1% applied daily to the forehead as the only treatment.

[2] = system: herpes ophthalmicus and herpes keratitis; assay: Example 8: herpes ophthalmicus and herpes keratitis patient; format: in vivo, human; conditions: dronabinol 0.5 mg twice daily to both ears
Text: A patient experienced an episode of herpes ophthalmicus and herpes keratitis in September 2003, resulting in thinning melt of the left cornea, loss of vision, inflammation, neuralgia, and a rash of blisters to the left forehead, upper nose, and temple with a subsequent full left-face palsy droop, which required multiple cosmetic surgical procedures to provide some symmetry to the face and partial closure to the eyelids of the left eye.
No corneal graft to the left eye could be attempted due to recurrent thinning of the full cornea and inflammation of the vasculature. The patient was treated with ophthalmic prednisolone, topical and systemic antivirals, topical antibiotics, bandage lens, punctal plugs, and over-the-counter artificial tears and gels. This treatment regimen was continued until January 2011 when the cornea thinned to probable melt-through, necessitating corneal patch surgery. Just prior to the surgery, the patient's vision was measured at 20/2000, or finger vision.
The patient started applying 1% progesterone to their forehead twice daily just before corneal patch surgery planned for January 2011. The dose of progesterone was approximately 1 mg per application.
In September 2014, corneal tissue had sufficiently epithelialized at the perimeter to attempt a corneal graft, which was successfully completed. Progesterone 1% was applied daily to the forehead post-surgery. Within 9 months vision was restored to best correct vision pinhole 20/50.
In February 2015, the patient's visual acuity decreased as a result of the rejection of cells at the lower part of the graft. Moderate central staining continued to persist in a band where eyelids could not close. Intraocular pressure (TOP) in the left eye rose to 22 mmHg. The patient was placed on a treatment regimen that included Prednisolone Forte 6× plus Restasis for rejection 2× daily and oral valacycovir, together with mechanically taping the eyelid closed at night.
In May 2016, the patient initiated a course of twice daily dronabinol treatment, 0.5 mg each dose, to both ears. Through July, stabilization was achieved, and all other medications were discontinued. […] Visual acuity improved to 20/40.

herpes facial palsy = assay: Example 9: functional facial motor control in herpes facial palsy; format: in vivo, human
Text: A person had unilateral facial unilateral palsy stemming from 2003 herpes ophthalmicus and herpes keratitis. The left eye lids were unable to close to cover the central cornea without a forceful blink; neither were the lids able to open with the upper lid sagging and without elasticity or muscle control. This static condition was the baseline since the end of 2003 to May 2016, or nearly 13 years.
The left side of the face drooped, the left corner of the mouth drooled, and a noticeable asymmetry presented at rest. The upper lip could only slightly reveal the lowest pat of the upper teeth on the right side. There was minimal functional motor control of facial expression including upper lip. left side brow, eye lids, cheeks to mouth and chin lacked elasticity and functional motor control, leaving face fixed, expressionless, and asymmetrical.
The facial skin sagged as did the eye lids. […] His upper lip was partially frozen on the left side, and drooling was persistent. Lip and mouth expression as in smile was severely restricted.
Beginning in mid-May 2016, the patient began treatment twice daily with dronabinol 2.5 mg in oil, one-third of which was applied equally to the concha of the left ear, to the conchae of the right ear, and to the forehead.

[3] = dronabinol 1.25 mg 2 times daily, forehead and both conchae, two weeks, no other medications
[4] = dronabinol 2.5 mg in oil twice daily divided between both conchae and forehead, 3 months

CCCCCc1cc(O)c2c(c1)OC(C)(C)[C@@H]1CCC(C)=C[C@@H]21 [dronabinol, (6aR,10aR)-6a,7,8,10a-tetrahydro-6,6,9-trimethyl-3-pentyl-6H-dibenzo[b,d]-pyran-1-ol]
stability of improvement ([1]; 3 months of dronabinol to conchae and forehead as sole Parkinson's medication): stable at the improved level
speech, thought and social interaction ([1]; dronabinol 1.25 mg 2 times daily divided between forehead and concha of both ears, within three days, washing out of rasagiline): more fluid speech, less searching for words, fewer thought gaps
bodily rigidity [1, 3]: significantly less bodily rigidity
depression [1, 3]: depression resolved in the absence of antidepressants
facial masking [1, 3]: decreased facial masking and more voluntary facial expressions; also recorded: decrease in facial masking
hand tremors [1, 3]: markedly reduced hand tremors
memory function [1, 3]: much improved memory function
motor skills and coordination [1, 3]: motor skills and coordination improved
postnasal drip, chest cough and asthmatic wheezing [1, 3]: persistent postnasal drip resolved, chest cough and asthmatic wheezing resolved
dry eyes ([1]; dronabinol 1.25 mg 2 times daily, forehead and both conchae, within three days): dry eyes resolved with no need for artificial tears
improvement of Parkinson's disease symptoms (motor, cognitive, emotional), reported by wife ([1]; dronabinol since Jun. 10, 2016 as sole medication, reported Jul. 27, 2016): 90%
cognitive function and other non-motor symptoms during tapering-off ([1]; tapering-off of dronabinol, already on Azilect and carbidopa-levodopa): rapidly deteriorated
adverse events ([1]; throughout low dose neural cranial treatment): no adverse events were noted
comfortable contact lens wear duration (essential tremor; 0.5-0.75 mg dronabinol once daily divided between both conchae and forehead): ≥ 15 h
hand tremor (essential tremor; 0.5-0.75 mg dronabinol once daily divided between both conchae and forehead, by the fourth day): hand tremor had noticeably reduced
hand tremor (essential tremor; 0.5-0.75 mg dronabinol once daily to forehead only, 2 weeks): without impacting their symptoms of hand tremor
reduction of essential tremor from pre-treatment levels, stable new baseline (essential tremor; after discontinuing dronabinol): about 50%
ocular discomfort (essential tremor; dronabinol USP 0.5 mg to 0.75 mg in an oil formulation to the forehead, substituted for progesterone): the same benefits to ocular discomfort was obtained
tremor amplitude after ceasing treatment (essential tremor; dronabinol ceased for 3 days, right hand): about 50 % of pre-treatment level
reduction in essential tremor from pre-treatment baseline (essential tremor; during dronabinol treatment): 80%
appetite (essential tremor; low dose topical dronabinol): unwanted increase in appetite
corneal staining ([2]; May through July 2016): improve somewhat, but still moderate
graft rejected cells ([2]; May through July 2016): the number of rejected cells became fewer
visual acuity ([2]; May through July 2016): 20/40
intraocular pressure (printed TOP) ([2]; May through July 2016, from 22 mmHg): 16 mmHg
best corrected vision pinhole ([2]; beginning of August): 20/25
blink interval ([2]; beginning of August): approximately 24 second
corneal staining ([2]; beginning of August): staining improved to superficial
intraocular pressure (printed TOP) in both eyes ([2]; beginning of August): 18
rejection cells ([2]; beginning of August): no sign of rejection cells
Keratograph 5M non-invasive tear film break times (NIKBUTs) level ([2]; beginning of August, 0 = best): 0
facial droop and drool (herpes facial palsy; 3 months of dronabinol application to the ear conchae): droop ad drool significantly resolved
recurrence of facial palsy (herpes facial palsy; after dronabinol was discontinued in August 2016): no recurrence of facial palsy
best corrected vision with pinhole (herpes facial palsy; [4]): 20/25
conjunctival redness (herpes facial palsy; [4]): improved significantly
control over facial expression muscles (herpes facial palsy; [4]): regained control over facial expression muscles
early graft rejection (herpes facial palsy; [4]): reversed
eye lid motor control (herpes facial palsy; [4]): more motor control over both eye lids
persistent central corneal staining (herpes facial palsy; [4]): resolved to a significant degree
tear film breakup time level by Keratograph 5M (herpes facial palsy; dronabinol 2.5 mg in oil twice daily divided between both conchae and forehead, 3 months, 0 = best): 0
